Assay results reported in ChEMBL document CHEMBL4808242, “Discovery of GNE-502 as an orally bioavailable and potent degrader for estrogen receptor positive breast cancer” (Bioorg Med Chem Lett, 2021).
In brackets after ≈: the same amount, converted by molar mass. Activity calls are given as the source filed them. The calls are words filed in the database; no cut-off is given here.

Experiments:
Estrogen receptor [1] = target: T1, Estrogen receptor (Homo sapiens, UniProt P03372); test: Induction of ERalpha degradation in human MCF7 cells by immunofluorescence assay; type: cell-based
T1 sequence (P03372 whole entry): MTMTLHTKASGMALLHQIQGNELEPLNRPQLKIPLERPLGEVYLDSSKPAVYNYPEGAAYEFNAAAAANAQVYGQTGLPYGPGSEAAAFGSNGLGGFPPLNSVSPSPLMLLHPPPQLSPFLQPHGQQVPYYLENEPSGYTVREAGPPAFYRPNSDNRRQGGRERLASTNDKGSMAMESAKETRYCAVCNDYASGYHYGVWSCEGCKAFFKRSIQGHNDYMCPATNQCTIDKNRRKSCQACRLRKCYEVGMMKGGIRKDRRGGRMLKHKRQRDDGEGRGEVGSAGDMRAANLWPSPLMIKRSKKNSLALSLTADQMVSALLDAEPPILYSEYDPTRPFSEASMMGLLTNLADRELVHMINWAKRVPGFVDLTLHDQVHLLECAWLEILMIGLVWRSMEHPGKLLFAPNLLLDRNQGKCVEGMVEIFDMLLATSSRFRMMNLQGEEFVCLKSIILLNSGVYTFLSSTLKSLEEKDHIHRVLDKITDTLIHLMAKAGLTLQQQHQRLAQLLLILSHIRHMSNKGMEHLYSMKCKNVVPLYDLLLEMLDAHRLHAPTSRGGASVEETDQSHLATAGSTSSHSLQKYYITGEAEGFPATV

[2] = target: T2, Estrogen receptor (Homo sapiens) (UniProt P03372); test: Induction of ERalpha degradation in human MCF7 cells assessed as maximum degradation by immunofluorescence assay relative to control; type: cell-based
T2 sequence (whole entry): T1 sequence (P03372 whole entry)

[3] = Distribution coefficient, logD of the compound at pH 7.4; settings: octanol/water
[4] = Kinetic solubility of compound at pH 7.4; type: physicochemical; settings: buffer, read-out: Kinetic_solubility
MCF7 [5] = test: Antiproliferation activity against human MCF7 cells assessed as reduction in cell viability measured by CellTiter-Glo luminescent assay; type: functional, cell-based
[6] = Apparent permeability across basolateral to apical side in MDCK cells; type: ADME, cell-based, Canis lupus familiaris; settings: dog
Estrogen receptor [7] = target: T1, Estrogen receptor; test: Displacement of fluorescein PGC1alpha from recombinant ERalpha (unknown origin)
[8] = Clearance in rat at 1 mg/kg, iv; type: ADME, organism-based; settings: in vivo
[9] = Volume of distribution at steady state in rat; type: ADME; settings: in vivo, read-out: Vdss
[10] = Half life in rat; type: ADME; settings: in vivo
[11] = Oral bioavailability in rat; type: ADME, organism-based; settings: in vivo
in vitro = settings: dog, MDCK
Estrogen receptor [12] = target: Estrogen receptor (Homo sapiens, UniProt P03372, Y537S); test: Induction of ERalpha Y537S mutant degradation expressed in human MCF7 cells by immunofluorescence assay; type: cell-based
Estrogen receptor (Homo sapiens, UniProt P03372, Y537S), sequence (P03372 whole entry Y537S): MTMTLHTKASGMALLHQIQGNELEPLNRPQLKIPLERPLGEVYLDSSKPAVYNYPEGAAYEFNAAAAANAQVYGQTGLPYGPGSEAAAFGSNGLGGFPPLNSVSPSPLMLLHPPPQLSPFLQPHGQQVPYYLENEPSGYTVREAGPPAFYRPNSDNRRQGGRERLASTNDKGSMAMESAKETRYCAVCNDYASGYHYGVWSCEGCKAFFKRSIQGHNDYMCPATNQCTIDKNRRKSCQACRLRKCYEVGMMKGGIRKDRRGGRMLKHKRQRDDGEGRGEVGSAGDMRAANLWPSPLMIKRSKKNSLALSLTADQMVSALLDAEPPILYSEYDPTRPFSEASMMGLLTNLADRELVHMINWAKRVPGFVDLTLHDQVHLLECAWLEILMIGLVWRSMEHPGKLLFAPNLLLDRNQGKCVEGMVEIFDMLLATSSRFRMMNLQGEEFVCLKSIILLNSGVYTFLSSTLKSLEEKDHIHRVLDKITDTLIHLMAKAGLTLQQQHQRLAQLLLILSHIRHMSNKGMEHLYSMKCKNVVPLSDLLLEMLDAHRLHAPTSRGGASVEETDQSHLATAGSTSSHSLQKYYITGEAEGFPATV

[13] = system: Estrogen receptor (Homo sapiens), P03372 [Y537S]; test: Induction of ERalpha Y537S mutant degradation expressed in human MCF7 cells assessed as maximum degradation by immunofluorescence assay relative to control; type: cell-based
Estrogen receptor (Homo sapiens), P03372 [Y537S], sequence (P03372 whole entry Y537S): as above

MCF7 [14] = test: Antitumor activity against human MCF7 cells xenografted in po dosed mouse assessed as tumor growth inhibition measured after 4 weeks; type: functional, organism-based; settings: dose 10-100 mg/kg
[15] = AUC in mouse at 10 mg/kg, po; type: ADME, organism-based; set-up: dose 10 mg/kg; settings: in vivo
[16] = AUC in mouse at 100 mg/kg, po; type: ADME, organism-based; set-up: dose 100 mg/kg; settings: in vivo
[17] = Toxicity in mouse xenografted with human MCF7 cells assessed as body weight loss at 1 to 100 mg/kg, po administered for 4 weeks; type: organism-based; settings: in vivo, 672 h, dose 1-100 mg/kg
MCF7 [18] = test: Antitumor activity against human MCF7 cells xenografted in mouse assessed as tumor growth inhibition at 100 mg/kg, po measured after 4 weeks; type: functional, organism-based
MCF7 [19] = test: Antitumor activity against human MCF7 cells xenografted in mouse assessed as tumor growth inhibition at 60 mg/kg, po QD for 4 weeks; type: functional, organism-based
[20] = Protein binding in human plasma assessed as unbound fraction; type: ADME, cell-free

Molecule `C[C@@H]1Cc2c([nH]c3ccccc23)[C@@H](c2c(F)cc(OCCN3CC(CF)C3)cc2F)N1C(=O)C1COC1` has a DC50 (Estrogen receptor [1]) of 4 nM, a %max [2] of 92% and a logD [3] of 1.8. For the same molecule, the solubility kinetic [4] was 117 µM (≈ 60.1 µg/mL).
With `C[C@@H]1Cc2c([nH]c3ccccc23)[C@@H](c2c(F)cc(OC3CN(CCCF)C3)cc2F)N1C(=O)C1(F)CCC1` the DC50 (Estrogen receptor [1]) was 1.2 nM, the %max [2] was 96% and the logD [3] was 4.3. For the same molecule, the solubility kinetic [4] was < 1 µM.
Work on `C[C@@H]1Cc2c([nH]c3ccccc23)[C@@H](c2c(F)cc(OC3CN(CCCF)C3)cc2F)N1C(=O)C(C)(C)F` yielded a DC50 (Estrogen receptor [1]) of 0.42 nM, a %max [2] of 100% and a logD [3] of 4. The solubility kinetic [4] was < 1 µM.
Work on `C[C@@H]1Cc2c([nH]c3ccccc23)[C@@H](c2c(F)cc(OCCN3CC(CF)C3)cc2F)N1C(=O)C1CC1` yielded a DC50 (Estrogen receptor [1]) of 3 nM, a %max [2] of 89% and a logD [3] of 2.1. The solubility kinetic [4] was 181 µM (≈ 90.1 µg/mL).
In the case of `C[C@@H]1Cc2c([nH]c3ccccc23)[C@@H](c2ccc(OCCN3CC(CF)C3)cc2F)N1S(C)(=O)=O`, the DC50 (Estrogen receptor [1]) is reported as 0.19 nM, the %max [2] is reported as 93% and the IC50 (MCF7 [5]) is reported as 0.4 nM. For the same molecule, the logD [3] was 2.5, the Papp B→A [6] was 5 ×10⁻⁶ cm/s and the solubility kinetic [4] was 135 µM (≈ 66.1 µg/mL). The IC50 (Estrogen receptor [7]) was 17 nM, the clearance [8] was 10.2 mL/min/kg and the Vd [9] was 9.6 L/kg. For the same molecule, the half-life [10] was 11 h, the bioavailability [11] was 48% and the Papp A→B (in vitro) was 4 ×10⁻⁶ cm/s.
In the case of `C[C@@H]1Cc2c([nH]c3ccccc23)[C@@H](c2ccc(OCCN3CC(CF)C3)cc2)N1S(C)(=O)=O`, the DC50 (Estrogen receptor [1]) is reported as 0.18 nM, the %max [2] is reported as 93% and the IC50 (MCF7 [5]) is reported as 0.5 nM. It also gave a logD [3] of 2.2, a Papp B→A [6] of 6 ×10⁻⁶ cm/s and a solubility kinetic [4] of 118 µM (≈ 55.6 µg/mL). For the same molecule, the DC50 (Estrogen receptor [12]) was 1.2 nM, the %max [13] was 82% and the IC50 (Estrogen receptor [7]) was 11 nM. It also gave a clearance [8] of 7 mL/min/kg, a Vd [9] of 7.7 L/kg and a half-life [10] of 13 h. For the same molecule, the Activity (MCF7 [14]) was “Dose-Dependent Effect”, the bioavailability [11] was 32% and the AUC [15] was 1.8 µM·h. The AUC [16] was 28.9 µM·h, the Activity [17] was “Non-Toxic” and the Activity (MCF7 [18]) was “Active”. The Papp A→B (in vitro) was 5 ×10⁻⁶ cm/s.
For `C[C@H](CF)C(=O)N1[C@H](c2c(F)cc(OCCN3CC(CF)C3)cc2F)c2[nH]c3ccccc3c2C[C@H]1C`, the DC50 (Estrogen receptor [1]) was 0.4 nM, the %max [2] was 96% and the logD [3] was 2.5. For the same molecule, the solubility kinetic [4] was 102 µM (≈ 52.8 µg/mL).
For `CC/C(=C(\c1ccccc1)c1ccc(OCCN(C)C)cc1)c1ccccc1`, the Activity (MCF7 [19]) was “Active”.
Work on `C[C@@H]1Cc2c([nH]c3ccccc23)[C@@H](c2c(F)cc(OC3CN(CCCF)C3)cc2F)N1C(=O)C1(F)CC1` yielded a DC50 (Estrogen receptor [1]) of 0.32 nM, a %max [2] of 95% and a logD [3] of 4.1. It also gave a solubility kinetic [4] of 13 µM (≈ 6.7 µg/mL).
In the case of `C[C@@H]1Cc2c([nH]c3ccccc23)[C@@H](c2c(F)cc(OCCN3CC(CF)C3)cc2F)N1C(=O)[C@@H](C)CF`, the DC50 (Estrogen receptor [1]) is reported as 0.34 nM, the %max [2] is reported as 98% and the logD [3] is reported as 2.5. It also gave a solubility kinetic [4] of 115 µM (≈ 59.5 µg/mL).
`C[C@@H]1Cc2c([nH]c3ccccc23)[C@@H](c2c(F)cc(OCCN3CC(CF)C3)cc2F)N1C(=O)CC1CC1` showed a DC50 (Estrogen receptor [1]) of 5 nM, a %max [2] of 95% and a logD [3] of 3.1. The solubility kinetic [4] was 111 µM (≈ 56.8 µg/mL).
In the case of `C[C@@H]1Cc2c([nH]c3ccccc23)[C@@H](c2c(F)cc(OCCN3CC(CF)C3)cc2F)N1S(C)(=O)=O`, the %max [2] is reported as 93%, the IC50 (MCF7 [5]) is reported as 0.5 nM and the logD [3] is reported as 2.3. For the same molecule, the Papp B→A [6] was 4 ×10⁻⁶ cm/s, the solubility kinetic [4] was 113 µM (≈ 57.4 µg/mL) and the %max [13] was 86%. It also gave a clearance [8] of 27.5 mL/min/kg, a Vd [9] of 17.3 L/kg and a half-life [10] of 7 h. The bioavailability [11] was 47% and the Papp A→B (in vitro) was 4 ×10⁻⁶ cm/s.
For `CC(=O)N1[C@H](c2c(F)cc(OCCN3CC(CF)C3)cc2F)c2[nH]c3ccccc3c2C[C@H]1C`, the %max [2] was 91%, the logD [3] was 2.5 and the solubility kinetic [4] was 53 µM (≈ 25 µg/mL).
For `C[C@@H]1Cc2c([nH]c3ccccc23)[C@@H](c2c(F)cc(OCCN3CC(CF)C3)cc2F)N1C(=O)C1CNC1`, the DC50 (Estrogen receptor [1]) was > 10 nM, the logD [3] was -0.2 and the solubility kinetic [4] was 96 µM (≈ 49.2 µg/mL).
With `C[C@@H]1Cc2c([nH]c3ccccc23)[C@@H](c2c(F)cc(OCCN3CC(CF)C3)cc2F)N1C(=O)C(C)(C)C` the DC50 (Estrogen receptor [1]) was 0.49 nM, the %max [2] was 90% and the logD [3] was 3.3. For the same molecule, the solubility kinetic [4] was 92 µM (≈ 47.3 µg/mL).
For `C[C@@H]1Cc2c([nH]c3ccccc23)[C@@H](c2c(F)cc(OC3CN(CCCF)C3)cc2F)N1CC(C)(C)F`, the %max [2] was 100%, the Papp B→A [6] was 0.2 ×10⁻⁶ cm/s and the fraction unbound [20] was < 0.001. For the same molecule, the solubility kinetic [4] was < 1 µM and the Papp A→B (in vitro) was 0.4 ×10⁻⁶ cm/s.
Molecule `C[C@@H]1Cc2c([nH]c3ccccc23)[C@@H](c2c(F)cc(OCCN3CC(CF)C3)cc2F)N1C(=O)C(C)(F)F` has a DC50 (Estrogen receptor [1]) of 0.15 nM, a %max [2] of 95% and a solubility kinetic [4] of 30 µM (≈ 15.6 µg/mL).
With `CC(CO)C(=O)N1[C@H](c2c(F)cc(OCCN3CC(CF)C3)cc2F)c2[nH]c3ccccc3c2C[C@H]1C` (some centres undefined) the DC50 (Estrogen receptor [1]) was 4 nM, the %max [2] was 91% and the logD [3] was 1.8. For the same molecule, the solubility kinetic [4] was 156 µM (≈ 80.4 µg/mL).
`CC(C)C(=O)N1[C@H](c2c(F)cc(OCCN3CC(CF)C3)cc2F)c2[nH]c3ccccc3c2C[C@H]1C` gave a DC50 (Estrogen receptor [1]) of 0.11 nM, a %max [2] of 95% and a solubility kinetic [4] of 135 µM (≈ 67.4 µg/mL).
`C[C@@H]1Cc2c([nH]c3ccccc23)[C@@H](c2c(F)cc(OCCN3CC(CF)C3)cc2F)N1C(=O)C(C)(C)F` showed a %max [2] of 94%, a logD [3] of 3.2 and a Papp B→A [6] of 1 ×10⁻⁶ cm/s. It also gave a solubility kinetic [4] of 95 µM (≈ 49.2 µg/mL), a clearance [8] of 120 mL/min/kg and a Vd [9] of 32 L/kg. For the same molecule, the half-life [10] was 3.1 h, the bioavailability [11] was 33% and the Papp A→B (in vitro) was 1 ×10⁻⁶ cm/s.
